Five compounds from patent publication EP4703357A1, “TRIAZOLYL-CONTAINING COMPOUNDS” (Chia Tai Tianqing Pharmaceutical Group Co., Ltd., priority 2023, dated 2024) can be followed below.

One may read the IC50 as the concentration needed to halve the response being measured. A lower IC50 goes with higher potency. A word on the AUC(0-inf): it is total exposure, with the tail of the curve extrapolated. As a reminder, the clearance is a measure of how efficiently the substance is removed, as volume per time. Lower therefore signals inefficient removal. For orientation: half-life means the time needed for the level to fall by half in the phase considered. Higher therefore signals slow decline. In general, Cmax refers to the highest concentration seen after dosing. In general, Tmax refers to the time from dosing to the highest level.

The test system of data set [1] is OCI-LY10 human diffuse large B-cell lymphoma NOD-SCID mouse subcutaneous xenograft tumor model. Put plainly: Efficacy in OCI-LY10 subcutaneous xenograft tumor model. The format is in vivo, NOD-SCID mice. The following applies: for TGI(%): by tumor weight. The text has this:
Efficacy evaluation in OCI-LY10 human diffuse large B-cell lymphoma NOD-SCID mouse subcutaneous xenograft tumor model • (1) SPF female NOD-SCID mice (source: Jiangsu Huachuang Xinnuo Pharmaceutical Technology Co., Ltd.) were inoculated subcutaneously at the right side armpit with OCI-LY10 human diffuse large B-cell lymphoma cells at 1 × 10^7 cells/mouse. When the mean tumor volume reached about 200 mm^3, the animals were divided into a control group (vehicle control group) and treatment groups (compound groups).
The administration dose included 1 mg/kg, 2 mg/kg, and 4 mg/kg, and the administration frequency was once daily. The day of grouping was defined as day 0, and intragastric administration was started on day 0 for 21 consecutive days.
Alternatively, the administration dose was 4 mg/kg, and the administration frequency was 5 times per week. The day of grouping was defined as day 0, and intragastric administration was started on day 0 five times per week for two consecutive weeks.
The tumor volume was measured once every 3 days, and meanwhile, the mice were weighed and the data were recorded; the general behavior of the mice was observed and recorded every day. After the experiment was completed, the tumors were removed, weighed, and photographed.
The detection index and the calculation formula are as follows: • Tumor volume TV (mm^3) = 1/2 × (a × b^2), wherein a is the long diameter of the tumor, and b is the short diameter of the tumor; • Relative tumor volume RTV = TVt/TV0, wherein TV0 is the tumor volume on day 0, and TVt is the tumor volume at each measurement; • Relative tumor proliferation rate T/C (%) = (TRTV/CRTV) × 100%, wherein TRTV is RTV of the treatment group, and CRTV is RTV of the vehicle control group; • Tumor growth inhibition rate TGI (%) = (1 - TW/TW0) × 100%; wherein TW is the tumor weight of the treatment group, and TW0 is the tumor weight of the vehicle control group; • Weight change rate WCR (%) = (Wtt - Wt0)/Wt0 × 100%, wherein Wt0 is the body weight of the mouse on day 0, and Wtt is the body weight of the mouse at each measurement.

The nature of data set [2]: In vitro liver microsomal stability, human. The format is in vitro ADME. The following applies: human liver microsome 0.5 mg/mL, NADPH, 37 °C, 1 h. Here is the method:
(§1) Liver microsome incubation samples were prepared by mixing a PBS buffer (pH = 7.4), a liver microsome solution (0.5 mg/mL), a test compound, and an NADPH + MgCl2 solution, and incubated at 37 °C and 300 rpm for 1 h. Zero-hour samples were prepared by mixing a PBS buffer (pH = 7.4), a liver microsome solution (0.5 mg/mL), and a test compound. An acetonitrile solution containing an internal standard was added to the samples, and supernatants were prepared by protein precipitation, diluted, and then assayed by LC/MS/MS. Table 17. In vitro metabolic stability of related compounds in liver microsomes of various species
A general note: Liver microsomes are a subcellular fraction often used to study metabolism.

The test system of another data set is Jurkat cells. Put plainly: Inhibitory activity on Jurkat cell proliferation (CCK-8). The format is cell-based. The following applies: Homo sapiens, 72 h incubation. Here is the method: (§2) Jurkat cells in a good growth state were collected into a centrifuge tube, adjusted to a cell density of 5 × 10^4 cells/mL, and seeded in a 96-well plate (100 µL/well). The cells were incubated overnight in a cell incubator. Compounds were added using a nanoliter pipettor such that the final concentrations of the compounds were 1000 nM-0.46 nM (the addition was performed in duplicate). Meanwhile, a control was set. After another 72 h of incubation in the cell incubator, the assay reagent CCK-8 (manufacturer: Dojindo Laboratories, Beijing; 10 µL/well) was added. After 2 h of incubation in the cell incubator, absorbance was measured at 450 nm on an Envision microplate reader. A four-parameter analysis was performed, a dose-response curve was fit, and IC50 was calculated.

A short description of data set [3]: In vitro liver microsomal stability, mouse. The following applies: mouse liver microsome 0.5 mg/mL, NADPH, 37 °C, 1 h. The format is in vitro ADME. Here is the method:
as §1

For the next data set, the system named is OCI-LY10 cells. Briefly: Inhibitory activity on OCI-LY10 cell proliferation (CCK-8). The format is cell-based. The following applies: Homo sapiens, 72 h incubation. Here is the method:
as §2, with “OCI-LY10 cells” for “Jurkat cells”, “of 9” for “of 5”

Data set [4] is described as follows: Mouse pharmacokinetics. The data set is classed as in vivo, ICR mice. The following applies: ICR, plasma; for AUC(0-t): read-out: AUC (0-24).
Data set [5] can be described thus: Mouse pharmacokinetics. The format is in vivo. The following applies: ICR, plasma, po, 3 mg/kg, Mice administered intragastrically 3 mpk; for AUC(0-t): read-out: AUC (0-24). Here is the method: ICR mice weighing 18-22 g were randomized into groups of 9 mice per group after 3-5 days of acclimatization and then administered intragastrically at a dose of 3 mg/kg.
Plasma samples to be tested were prepared by taking blood from the orbit at time points of 15 min, 30 min, 1 h, 2 h, 4 h, 6 h, 8 h, 10 h, and 24 h.
20 µL of each plasma sample to be tested and a standard curve sample were taken, and an acetonitrile solution containing an internal standard was added. A supernatant was obtained by protein precipitation, diluted, and then assayed by LC/MS/MS.
Pharmacokinetic parameters were fitted using a non-compartmental model.

Where [6] appears, read: Table 20, 4mg/kg intragastric, Day 18 of assay.
Where [7] appears, read: Table 19, 2mg/kg intragastric, Day 21 of assay.
Where [8] appears, read: 1 mg/kg, Mice administered by single intravenous injection 1 mpk.
Where [9] appears, read: po, 3 mg/kg, Mice administered intragastrically 3 mpk.
[10] abbreviates: Table 19, 4mg/kg intragastric, Day 21 of assay.

Molecules are shown by their SMILES. Read-outs that look alike come from different tables or passages of the source.

On to `NC(=O)/C(=C/n1cnc(-c2cc(C(F)(F)F)nc(C(F)(F)F)c2)n1)c1cnc2ccccc2c1` [11(11-A)], for which, in data set [1] (setting [6]), the “RTV (mean±SD)” value was 1.7±0.2, the “T/C(%)” value is 21.8% and the “TV(mm^3) (mean±SD)” value is on record as 326±52 mm^3. Moreover, the “Weight change rate (%) (mean ± SD)” value in data set [1] (Table 20, 4mg/kg intragastric, Day 21 of assay) came out at 0.6±8.1%. Further, the “TGI(%)” value in data set [1] (Table 20, 4mg/kg intragastric, Day 21 of assay, ** p < 0.01 vs control) stood at 89.7%**. Also, in data set [2], the “Human liver microsome Residuals at 60 min (%)” value came out at 86.18%. The compound further registered an IC50 in the data set on Jurkat cells not above 0.02 µM. Moreover, the “Mouse liver microsome Residuals at 60 min (%)” value in data set [3] is listed as 89.63%. Also, the IC50 in the data set with OCI-LY10 cells was not above 0.04 µM.

`Cc1ccc(/C(=C\n2cnc(-c3cc(C(F)(F)F)nc(C(F)(F)F)c3)n2)C(N)=O)cn1` [21(21-A)]: in data set [1] (setting [7]), the “RTV (mean±SD)” value stood at 2.4±0.4, the “T/C(%)” value is 22.2% and the “TV(mm^3) (mean±SD)” value came to 520±178 mm^3. Further, the “Weight change rate (%) (mean ± SD)” value in data set [1] (Table 19, 2mg/kg intragastric, Day 23 of assay) is -2.0±6.5%. In data set [1] (Table 19, 2mg/kg intragastric, Day 23 of assay, * p < 0.05 vs control), the “TGI(%)” value was 89.3%*. In addition, in data set [2], the “Human liver microsome Residuals at 60 min (%)” value is reported as 94.26%. Moreover, the “Mouse liver microsome Residuals at 60 min (%)” value in data set [3] is listed as 99.28%. Besides, in “Mouse pharmacokinetics [4]” (setting [8]), the AUC(0-inf) was determined as 1630 ng·h/mL, the clearance was 10.2 mL/min/kg, the half-life was 3.02 h and the AUC(0-t) was found to be 1630 ng·h/mL. This compound also came in with a total exposure AUC(0-inf) in “Mouse pharmacokinetics [4]” (setting [9]) of 4760 ng·h/mL. In “Mouse pharmacokinetics [5]”, the highest level (Cmax) was 871 ng/mL, the Tmax came to 1 h, the half-life was 2.35 h and the AUC(0-t) was 4750 ng·h/mL.

In the case of `NC(=O)/C(=C/n1cnc(-c2cc(C(F)(F)F)nc(C(F)(F)F)c2)n1)c1cnc2cccnc2c1` [25(25-A)], in data set [1] (setting [10]), the “RTV (mean±SD)” value is on record as 1.8±0.6, the “T/C(%)” value stood at 16.7% and the “TV(mm^3) (mean±SD)” value came to 360±105 mm^3. The “Weight change rate (%) (mean ± SD)” value in data set [1] (Table 19, 4mg/kg intragastric, Day 23 of assay) came to 1.7±5.3%. In addition, the “TGI(%)” value in data set [1] (Table 19, 4mg/kg intragastric, Day 23 of assay, * p < 0.05 vs control) is recorded as 91.1%*. The “Human liver microsome Residuals at 60 min (%)” value in data set [2] is on record as 110.48%. Besides, the IC50 in the data set with Jurkat cells was not above 0.02 µM. In addition, the “Mouse liver microsome Residuals at 60 min (%)” value in data set [3] was determined as 94.66%. In the data set on OCI-LY10 cells, this compound gave an IC50 not above 0.04 µM.

`CC(F)(F)CNc1ncc(/C(=C\n2cnc(-c3cc(C4CC4)nc(C(F)(F)F)c3)n2)C(N)=O)cn1` [15(15-A)]: the “Human liver microsome Residuals at 60 min (%)” value in data set [2] is reported as 87.55%. The same compound gave an IC50 in the data set with Jurkat cells not above 0.02 µM. For the same compound, in data set [3], the “Mouse liver microsome Residuals at 60 min (%)” value is recorded as 88.38%. For the same compound, in “Mouse pharmacokinetics [4]” (setting [8]), the area under the curve AUC(0-inf) stood at 1630 ng·h/mL, the clearance was 10.2 mL/min/kg, the half-life was 1.34 h and the AUC(0-t) was 1620 ng·h/mL. The same compound had a total exposure AUC(0-inf) in “Mouse pharmacokinetics [4]” (setting [9]) of 4650 ng·h/mL. Besides, in “Mouse pharmacokinetics [5]”, the peak level (Cmax) was 599 ng/mL, the time to peak (Tmax) worked out at 3 h, the half-life was 3.48 h and the AUC(0-t) was determined as 4600 ng·h/mL. Moreover, the IC50 in the data set on OCI-LY10 cells is not above 0.04 µM.

With `CC(F)(F)CNc1ncc(/C(=C\n2cnc(-c3cc(C(F)(F)F)nc(C(F)(F)F)c3)n2)C(N)=O)cn1` [3(3-A)], the “Human liver microsome Residuals at 60 min (%)” value in data set [2] turned out to be 95.65%. In the data set on Jurkat cells, this compound registered a half-maximal inhibitory concentration (IC50) not above 0.02 µM. Moreover, in data set [3], the “Mouse liver microsome Residuals at 60 min (%)” value is 94.26%. Further, in the data set “Mouse pharmacokinetics [4]” (setting [8]), the AUC(0-inf) was found to be 1570 ng·h/mL, the clearance is 10.6 mL/min/kg, the half-life was 1.66 h and the AUC(0-t) amounted to 1540 ng·h/mL. Also, in “Mouse pharmacokinetics [4]” (setting [9]), the AUC(0-inf) came out at 5300 ng·h/mL. For the same compound, in “Mouse pharmacokinetics [5]”, the peak level (Cmax) was 681 ng/mL, the Tmax amounted to 3 h, the half-life was 2.8 h and the AUC(0-t) is 5280 ng·h/mL. In the data set on OCI-LY10 cells, this compound gave an IC50 not above 0.04 µM.
